Measured values: paper PMC9401487 (Clinical Cancer Research, 2021)
“Also recorded” adds a separate entry of the source.

System: patients with advanced solid tumors
Experiment: Phase I safety and tolerability
Assay type: in vivo, human
[1] = Cohort 1 (N=2), 20 mg BID 17 days + carboplatin
[2] = Cohort 2 (N=7), 20 mg BID 10 days + carboplatin
[3] = Cohort 3 (N=3), 40 mg BID 10 days + carboplatin

In the case of `C[C@@H]1COCCN1c1cc(C2([S@](C)(=N)=O)CC2)nc(-c2cc[nH]c3nccc2-3)n1` [ceralasertib], the “TEAE Abdominal pain, Grade 1–2” value [1] is reported as 0 patients, n (%), the “TEAE Abdominal pain, Grade ≥3” value [1] is reported as 1 (50) patients, n (%) and the “TEAE Alanine aminotransferase increased, Grade 1–2” value [1] is reported as 0 patients, n (%). The “TEAE Alanine aminotransferase increased, Grade ≥3” value [1] was 0 patients, n (%), the “TEAE Anemia, Grade 1–2” value [1] was 1 (50) patients, n (%) and the “TEAE Anemia, Grade ≥3” value [1] was 0 patients, n (%). For the same compound, the “TEAE Any AE, Grade 1–2” value [1] was 1 (50) patients, n (%), the “TEAE Any AE, Grade ≥3” value [1] was 1 (50) patients, n (%) and the “TEAE Arthralgia, Grade 1–2” value [1] was 0 patients, n (%). For the same compound, the “TEAE Arthralgia, Grade ≥3” value [1] was 0 patients, n (%), the “TEAE Aspartate aminotransferase increased, Grade 1–2” value [1] was 0 patients, n (%) and the “TEAE Aspartate aminotransferase increased, Grade ≥3” value [1] was 0 patients, n (%). The “TEAE Constipation, Grade 1–2” value [1] was 1 (50) patients, n (%), the “TEAE Constipation, Grade ≥3” value [1] was 0 patients, n (%) and the “TEAE Contusion, Grade 1–2” value [1] was 0 patients, n (%). The “TEAE Contusion, Grade ≥3” value [1] was 0 patients, n (%), the “TEAE Cough, Grade 1–2” value [1] was 0 patients, n (%) and the “TEAE Cough, Grade ≥3” value [1] was 0 patients, n (%). The “TEAE Decreased appetite, Grade 1–2” value [1] was 0 patients, n (%), the “TEAE Decreased appetite, Grade ≥3” value [1] was 0 patients, n (%) and the “TEAE Diarrhea, Grade 1–2” value [1] was 1 (50) patients, n (%). For the same compound, the “TEAE Diarrhea, Grade ≥3” value [1] was 0 patients, n (%), the “TEAE Dizziness, Grade 1–2” value [1] was 0 patients, n (%) and the “TEAE Dizziness, Grade ≥3” value [1] was 0 patients, n (%). The “TEAE Dyspnea, Grade 1–2” value [1] was 1 (50) patients, n (%), the “TEAE Dyspnea, Grade ≥3” value [1] was 0 patients, n (%) and the “TEAE Fatigue, Grade 1–2” value [1] was 2 (100) patients, n (%). For the same compound, the “TEAE Fatigue, Grade ≥3” value [1] was 0 patients, n (%), the “TEAE Hypocalcemia, Grade 1–2” value [1] was 0 patients, n (%) and the “TEAE Hypocalcemia, Grade ≥3” value [1] was 0 patients, n (%). For the same compound, the “TEAE Insomnia, Grade 1–2” value [1] was 0 patients, n (%), the “TEAE Insomnia, Grade ≥3” value [1] was 0 patients, n (%) and the “TEAE Lower respiratory tract infection, Grade 1–2” value [1] was 0 patients, n (%). The “TEAE Lower respiratory tract infection, Grade ≥3” value [1] was 0 patients, n (%), the “TEAE Nausea, Grade 1–2” value [1] was 1 (50) patients, n (%) and the “TEAE Nausea, Grade ≥3” value [1] was 0 patients, n (%). For the same compound, the “TEAE Neutropenia, Grade 1–2” value [1] was 0 patients, n (%), the “TEAE Neutropenia, Grade ≥3” value [1] was 1 (50) patients, n (%) and the “TEAE Neutrophil count decreased, Grade 1–2” value [1] was 0 patients, n (%). For the same compound, the “TEAE Neutrophil count decreased, Grade ≥3” value [1] was 0 patients, n (%), the “TEAE Platelet count decreased, Grade 1–2” value [1] was 0 patients, n (%) and the “TEAE Platelet count decreased, Grade ≥3” value [1] was 0 patients, n (%). For the same compound, the “TEAE Pyrexia, Grade 1–2” value [1] was 1 (50) patients, n (%), the “TEAE Pyrexia, Grade ≥3” value [1] was 0 patients, n (%) and the “TEAE Thrombocytopenia, Grade 1–2” value [1] was 1 (50) patients, n (%). For the same compound, the “TEAE Thrombocytopenia, Grade ≥3” value [1] was 1 (50) patients, n (%), the “TEAE Upper respiratory tract infection, Grade 1–2” value [1] was 0 patients, n (%) and the “TEAE Upper respiratory tract infection, Grade ≥3” value [1] was 0 patients, n (%). For the same compound, the “TEAE Vomiting, Grade 1–2” value [1] was 1 (50) patients, n (%), the “TEAE Vomiting, Grade ≥3” value [1] was 0 patients, n (%) and the “TEAE White blood cell count decreased, Grade 1–2” value [1] was 0 patients, n (%). The “TEAE White blood cell count decreased, Grade ≥3” value [1] was 1 (50) patients, n (%), the “SRC decision (tolerability)” value (Cohort 1: 20 mg BID days 4–20 (17 days) + carboplatin AUC5, 2 patients) was “declared intolerable; also recorded: Not tolerated” and the “TEAE Abdominal pain, Grade 1–2” value [2] was 0 patients, n (%). For the same compound, the “TEAE Abdominal pain, Grade ≥3” value [2] was 0 patients, n (%), the “TEAE Alanine aminotransferase increased, Grade 1–2” value [2] was 1 (14) patients, n (%) and the “TEAE Alanine aminotransferase increased, Grade ≥3” value [2] was 0 patients, n (%). For the same compound, the “TEAE Anemia, Grade 1–2” value [2] was 2 (29) patients, n (%), the “TEAE Anemia, Grade ≥3” value [2] was 2 (29) patients, n (%) and the “TEAE Any AE, Grade 1–2” value [2] was 2 (29) patients, n (%). The “TEAE Any AE, Grade ≥3” value [2] was 5 (71) patients, n (%), the “TEAE Arthralgia, Grade 1–2” value [2] was 1 (14) patients, n (%) and the “TEAE Arthralgia, Grade ≥3” value [2] was 0 patients, n (%). The “TEAE Aspartate aminotransferase increased, Grade 1–2” value [2] was 1 (14) patients, n (%), the “TEAE Aspartate aminotransferase increased, Grade ≥3” value [2] was 0 patients, n (%) and the “TEAE Constipation, Grade 1–2” value [2] was 2 (29) patients, n (%). The “TEAE Constipation, Grade ≥3” value [2] was 0 patients, n (%), the “TEAE Contusion, Grade 1–2” value [2] was 1 (14) patients, n (%) and the “TEAE Contusion, Grade ≥3” value [2] was 0 patients, n (%). For the same compound, the “TEAE Cough, Grade 1–2” value [2] was 5 (71) patients, n (%), the “TEAE Cough, Grade ≥3” value [2] was 0 patients, n (%) and the “TEAE Decreased appetite, Grade 1–2” value [2] was 1 (14) patients, n (%). The “TEAE Decreased appetite, Grade ≥3” value [2] was 0 patients, n (%), the “TEAE Diarrhea, Grade 1–2” value [2] was 2 (29) patients, n (%) and the “TEAE Diarrhea, Grade ≥3” value [2] was 0 patients, n (%). The “TEAE Dizziness, Grade 1–2” value [2] was 0 patients, n (%), the “TEAE Dizziness, Grade ≥3” value [2] was 0 patients, n (%) and the “TEAE Dyspnea, Grade 1–2” value [2] was 3 (43) patients, n (%). The “TEAE Dyspnea, Grade ≥3” value [2] was 0 patients, n (%), the “TEAE Fatigue, Grade 1–2” value [2] was 4 (58) patients, n (%) and the “TEAE Fatigue, Grade ≥3” value [2] was 1 (14) patients, n (%). The “TEAE Hypocalcemia, Grade 1–2” value [2] was 0 patients, n (%), the “TEAE Hypocalcemia, Grade ≥3” value [2] was 0 patients, n (%) and the “TEAE Insomnia, Grade 1–2” value [2] was 2 (29) patients, n (%). For the same compound, the “TEAE Insomnia, Grade ≥3” value [2] was 0 patients, n (%), the “TEAE Lower respiratory tract infection, Grade 1–2” value [2] was 2 (29) patients, n (%) and the “TEAE Lower respiratory tract infection, Grade ≥3” value [2] was 0 patients, n (%). The “TEAE Nausea, Grade 1–2” value [2] was 2 (29) patients, n (%), the “TEAE Nausea, Grade ≥3” value [2] was 0 patients, n (%) and the “TEAE Neutropenia, Grade 1–2” value [2] was 1 (14) patients, n (%). For the same compound, the “TEAE Neutropenia, Grade ≥3” value [2] was 0 patients, n (%), the “TEAE Neutrophil count decreased, Grade 1–2” value [2] was 0 patients, n (%) and the “TEAE Neutrophil count decreased, Grade ≥3” value [2] was 0 patients, n (%). For the same compound, the “TEAE Platelet count decreased, Grade 1–2” value [2] was 0 patients, n (%), the “TEAE Platelet count decreased, Grade ≥3” value [2] was 1 (14) patients, n (%) and the “TEAE Pyrexia, Grade 1–2” value [2] was 3 (43) patients, n (%). The “TEAE Pyrexia, Grade ≥3” value [2] was 0 patients, n (%), the “TEAE Thrombocytopenia, Grade 1–2” value [2] was 4 (58) patients, n (%) and the “TEAE Thrombocytopenia, Grade ≥3” value [2] was 1 (14) patients, n (%). For the same compound, the “TEAE Upper respiratory tract infection, Grade 1–2” value [2] was 3 (43) patients, n (%), the “TEAE Upper respiratory tract infection, Grade ≥3” value [2] was 0 patients, n (%) and the “TEAE Vomiting, Grade 1–2” value [2] was 2 (29) patients, n (%). The “TEAE Vomiting, Grade ≥3” value [2] was 0 patients, n (%), the “TEAE White blood cell count decreased, Grade 1–2” value [2] was 0 patients, n (%) and the “TEAE White blood cell count decreased, Grade ≥3” value [2] was 0 patients, n (%). The “TEAE Abdominal pain, Grade 1–2” value [3] was 0 patients, n (%), the “TEAE Abdominal pain, Grade ≥3” value [3] was 0 patients, n (%) and the “TEAE Alanine aminotransferase increased, Grade 1–2” value [3] was 0 patients, n (%). For the same compound, the “TEAE Alanine aminotransferase increased, Grade ≥3” value [3] was 0 patients, n (%) and the “TEAE Anemia, Grade 1–2” value [3] was 1 (33) patients, n (%).
